Laboratory results as given in patent publication US20090298786A1, “METHODS OF TREATING VIRAL INFECTIONS WITH ANTHRACYCLINE ANTIBIOTICS” (priority 2007, published 2009).

Each molecule was assayed against T1, HCV helicase (helicase domain of NS3 protein) (UniProt P27958) (assay: Fluorometric (FRET) antihelicase activity assay). Details: concentration inhibiting 50% of helicase activity; 10 nM enzyme pre-incubated 15 min with derivative, unwinding at 30° C. for 60 min.
T1 construct: The helicase domain of NS3 protein was expressed in a baculovirus system in HF insect cell line; fused on or other part: Histidine tag, inferred from the Talon cobalt column purification ('histidine repetitions')
T1 sequence (P27958 1027-1657): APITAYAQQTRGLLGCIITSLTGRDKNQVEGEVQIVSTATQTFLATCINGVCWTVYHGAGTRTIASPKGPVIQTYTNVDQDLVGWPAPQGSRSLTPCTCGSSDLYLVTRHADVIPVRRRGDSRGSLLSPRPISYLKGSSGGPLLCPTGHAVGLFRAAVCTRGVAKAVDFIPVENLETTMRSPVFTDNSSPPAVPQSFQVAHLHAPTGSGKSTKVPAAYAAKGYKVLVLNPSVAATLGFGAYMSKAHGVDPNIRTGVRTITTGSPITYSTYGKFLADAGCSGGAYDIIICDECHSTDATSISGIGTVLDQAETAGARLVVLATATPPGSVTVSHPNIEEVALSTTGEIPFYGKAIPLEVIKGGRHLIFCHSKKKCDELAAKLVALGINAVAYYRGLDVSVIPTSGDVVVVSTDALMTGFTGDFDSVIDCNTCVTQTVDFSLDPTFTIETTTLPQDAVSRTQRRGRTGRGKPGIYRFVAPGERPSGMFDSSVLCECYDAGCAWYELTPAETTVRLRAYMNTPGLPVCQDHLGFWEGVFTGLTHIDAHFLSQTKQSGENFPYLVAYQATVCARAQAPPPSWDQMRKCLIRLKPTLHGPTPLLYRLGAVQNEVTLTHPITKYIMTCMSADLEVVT
Assay type: biochemical, hepatitis C virus (HCV)
Excerpt: A reaction takes place on a 96- or 384-well microtitration plate and a course of the reaction is observed in real time.
The helicase domain of NS3 protein was expressed in a baculovirus system in HF insect cell line.
In this assay, FAM fluorescence is quenched by fluorescence energy transfer (FRET) to the BHQ molecule, while unwinding of double-stranded DNA structure leads to decrease of FRET phenomenon and increase of FAM fluorescence signal. The assay allows for examining a large number of samples, i.e., different helicase inhibitors at various concentrations and with many repetitions, in standardized conditions. The reaction is conducted in a microtitration plate. The reaction process is observed in real time.
The enzyme (10 nM) was pre-incubated with the tested derivatives dissolved in DMSO (0.005 to 20 μM concentration) without ATP for 15 min at room temperature. The reaction of DNA unwinding was started by addition of ATP and was carried out at 30° C. for 60 min in a Synergy HTi (Biotek) fluorometer. […] Fluorescence was measured every 2 mins.
The enzyme activity was calculated as the initial reaction velocity from the linear part of reaction curve (fluorescence growth as a function of time) using a linear regression method. Inhibition was calculated as comparison of activity of the helicase incubated with inhibitor to activity of the helicase incubated without inhibitor, but with a proper concentration of DMSO, expressed in percent.
In the case of `COc1cccc2c1C(=O)c1c(O)c3c(c(O)c1C2=O)CC(O)(C(C)=O)CC3OC1CC(N=CN2CCN(C)CC2)C(O)C(C)O1` (stereo not shown) [Derivative 76], the IC50 is reported as 770 nM.

Same assay, conditions: concentration inhibiting 50% of helicase activity; 10 nM enzyme pre-incubated 15 min with derivative, unwinding at 30° C. for 60 min; read-out: IC50
For `COc1cccc2c1C(=O)c1c(O)c3c(c(O)c1C2=O)CC(O)(C(C)=O)CC3OC1CC(N=CN2CCCCC2)C(O)C(C)O1` (stereo not shown) [Derivative 5], the IC50 was 3500 nM.
`COc1cccc2c1C(=O)c1c(O)c3c(c(O)c1C2=O)CC(O)(C(=O)CO)CC3OC1CC(N=C(C)N2CCN(C)CC2)C(O)C(C)O1` (stereo not shown) [Derivative 59] gave an IC50 of 420 nM.
With `CCN(C=NC1CC(OC2CC(O)(C(C)=O)Cc3c(O)c4c(c(O)c32)C(=O)c2c(OC)cccc2C4=O)OC(C)C1O)CC` (stereo not shown) [Derivative 80] the IC50 was 300 nM.
`COc1cccc2c1C(=O)c1c(O)c3c(c(O)c1C2=O)CC(O)(C(C)=O)CC3OC1CC(N=CN2CCCC2)C(O)C(C)O1` (stereo not shown) [Derivative 69] was tested, and the IC50 was 1080 nM.
`COc1cccc2c1C(=O)c1c(O)c3c(c(O)c1C2=O)CC(O)(C(C)=O)CC3OC1CC(N=CN2CCOCC2)C(O)C(C)O1` (stereo not shown) [Derivative 71] showed an IC50 of 3130 nM.
`COc1cccc2c1C(=O)c1c(O)c3c(c(O)c1C2=O)CC(O)(C(=O)CO)CC3OC1CC(N=C(C)N2CCCC2)C(O)C(C)O1` (stereo not shown) [Derivative 52] gave an IC50 of 500 nM.
For `COc1cccc2c1C(=O)c1c(O)c3c(c(O)c1C2=O)CC(O)(C(=O)CO)CC3OC1CC(N=CN2CCOCC2)C(O)C(C)O1` (stereo not shown) [Derivative 107], the IC50 was 970 nM.
Molecule `COc1cccc2c1C(=O)c1c(O)c3c(c(O)c1C2=O)CC(O)(C(C)=O)CC3OC1CC(N=C(C)N2CCCCC2)C(O)C(C)O1` (stereo not shown) [Derivative 22] has an IC50 of 700 nM.
In the case of `COc1cccc2c1C(=O)c1c(O)c3c(c(O)c1C2=O)CC(O)(C(C)=O)CC3OC1CC(N=CN2CCOCC2)C(O)C(C)O1` (stereo not shown) [Derivative 3], the IC50 is reported as 3170 nM.
`COc1cccc2c1C(=O)c1c(O)c3c(c(O)c1C2=O)CC(O)(C(=O)CO)CC3OC1CC(N=CN2CCOCC2)C(O)C(C)O1` (stereo not shown) [Derivative 37] showed an IC50 of 2120 nM.
`CCN(C=NC1CC(OC2CC(O)(C(=O)CO)Cc3c(O)c4c(c(O)c32)C(=O)c2c(OC)cccc2C4=O)OC(C)C1O)CC` (stereo not shown) [Derivative 116] showed an IC50 of 2170 nM.
With `CCCN(CCC)C(C)=NC1CC(OC2CC(O)(C(C)=O)Cc3c(O)c4c(c(O)c32)C(=O)c2c(OC)cccc2C4=O)OC(C)C1O` (stereo not shown) [Derivative 100] the IC50 was 1900 nM.
Molecule `COc1cccc2c1C(=O)c1c(O)c3c(c(O)c1C2=O)CC(O)(C(=O)CO)CC3OC1CC(N=C(C)N2CCCCC2)C(O)C(C)O1` (stereo not shown) [Derivative 127] has an IC50 of 220 nM.
Work on `COc1cccc2c1C(=O)c1c(O)c3c(c(O)c1C2=O)CC(O)(C(C)=O)CC3OC1CC(N=C(C)N2CCc3ccccc32)C(O)C(C)O1` (stereo not shown) [Derivative 27] yielded an IC50 of 11300 nM.
`CCN(CC)C(C)=NC1CC(OC2CC(O)(C(=O)CO)Cc3c(O)c4c(c(O)c32)C(=O)c2c(OC)cccc2C4=O)OC(C)C1O` (stereo not shown) [Derivative 135] gave an IC50 of 1240 nM.
`CCCN(C=NC1CC(OC2CC(O)(C(=O)CO)Cc3c(O)c4c(c(O)c32)C(=O)c2c(OC)cccc2C4=O)OC(C)C1O)CCC` (stereo not shown) [Derivative 118] was tested, and the IC50 was 2210 nM.
`COc1cccc2c1C(=O)c1c(O)c3c(c(O)c1C2=O)CC(O)(C(C)=O)CC3OC1CC(N=C(C)N2CCN(C)CC2)C(O)C(C)O1` (stereo not shown) [Derivative 25] showed an IC50 of 6250 nM.
In the case of `COc1cccc2c1C(=O)c1c(O)c3c(c(O)c1C2=O)CC(O)(C(C)=O)CC3OC1CC(N=C(C)N2CCCCCC2)C(O)C(C)O1` (stereo not shown) [Derivative 93], the IC50 is reported as 990 nM.
In the case of `COc1cccc2c1C(=O)c1c(O)c3c(c(O)c1C2=O)CC(O)(C(=O)CO)CC3OC1CC(N=CN2CCCCCC2)C(O)C(C)O1` (stereo not shown) [Derivative 41], the IC50 is reported as 1610 nM.
For `COc1cccc2c1C(=O)c1c(O)c3c(c(O)c1C2=O)CC(O)(C(C)=O)CC3OC1CC(N=CN2CCCCC2)C(O)C(C)O1` (stereo not shown) [Derivative 73], the IC50 was 2390 nM.
`CCCCN(C=NC1CC(OC2CC(O)(C(C)=O)Cc3c(O)c4c(c(O)c32)C(=O)c2c(OC)cccc2C4=O)OC(C)C1O)CCCC` (stereo not shown) [Derivative 84] gave an IC50 of 2050 nM.
`COc1cccc2c1C(=O)c1c(O)c3c(c(O)c1C2=O)CC(O)(C(C)=O)CC3OC1CC(N=CN2CCN(C)CC2)C(O)C(C)O1` (stereo not shown) [Derivative 76] was tested, and the IC50 was 760 ± 210 nM.
`COc1cccc2c1C(=O)c1c(O)c3c(c(O)c1C2=O)CC(O)(C(C)=O)CC3OC1CC(N=CN2CCc3ccccc32)C(O)C(C)O1` (stereo not shown) [Derivative 78] gave an IC50 of 450 nM.
Molecule `COc1cccc2c1C(=O)c1c(O)c3c(c(O)c1C2=O)CC(O)(C(C)=O)CC3OC1CC(N=CN2CCN(C)CC2)C(O)C(C)O1` (stereo not shown) [Derivative 8] has an IC50 of 1960 nM.
In the case of `CCN(C=NC1CC(OC2CC(O)(C(=O)CO)Cc3c(O)c4c(c(O)c32)C(=O)c2c(OC)cccc2C4=O)OC(C)C1O)CC` (stereo not shown) [Derivative 46], the IC50 is reported as 1320 nM.
For `COc1cccc2c1C(=O)c1c(O)c3c(c(O)c1C2=O)CC(O)(C(=O)CO)CC3OC1CC(N=C(C)N2CCN(C)CC2)C(O)C(C)O1` (stereo not shown) [Derivative 131], the IC50 was 130 nM.
In the case of `COc1cccc2c1C(=O)c1c(O)c3c(c(O)c1C2=O)CC(O)(C(=O)CO)CC3OC1CC(N=CN2CCCC2)C(O)C(C)O1` (stereo not shown) [Derivative 35], the IC50 is reported as 550 nM.
`CCN(C=NC1CC(OC2CC(O)(C(C)=O)Cc3c(O)c4c(c(O)c32)C(=O)c2c(OC)cccc2C4=O)OC(C)C1O)CC` (stereo not shown) [Derivative 12] gave an IC50 of 1580 nM.
Work on `COc1cccc2c1C(=O)c1c(O)c3c(c(O)c1C2=O)CC(O)(C(C)=O)CC3OC1CC(N=C(C)N2CCCCC2)C(O)C(C)O1` (stereo not shown) [Derivative 91] yielded an IC50 of 30 nM.
`COc1cccc2c1C(=O)c1c(O)c3c(c(O)c1C2=O)CC(O)(C(C)=O)CC3OC1CC(N=CN2CCN(C)CC2)C(O)C(C)O1` (stereo not shown) [Derivative 77] gave an IC50 of 780 ± 180 nM.
`COc1cccc2c1C(=O)c1c(O)c3c(c(O)c1C2=O)CC(O)(C(=O)CO)CC3OC1CC(N=CN2CCN(C)CC2)C(O)C(C)O1` (stereo not shown) [Derivative 112] showed an IC50 of 1530 nM.
For `COc1cccc2c1C(=O)c1c(O)c3c(c(O)c1C2=O)CC(O)(C(=O)CO)CC3OC1CC(N=CN2CCCCCC2)C(O)C(C)O1` (stereo not shown) [Derivative 111], the IC50 was 1720 nM.
In the case of `CCN(CC)C(C)=NC1CC(OC2CC(O)(C(C)=O)Cc3c(O)c4c(c(O)c32)C(=O)c2c(OC)cccc2C4=O)OC(C)C1O` (stereo not shown) [Derivative 98], the IC50 is reported as 180 nM.
Molecule `COc1cccc2c1C(=O)c1c(O)c3c(c(O)c1C2=O)CC(O)(C(C)=O)CC3OC1CC(N=C(C)N2CCCC2)C(O)C(C)O1` (stereo not shown) [Derivative 18] has an IC50 of 410 nM.
In the case of `COc1cccc2c1C(=O)c1c(O)c3c(c(O)c1C2=O)CC(O)(C(=O)CO)CC3OC1CC(N=CN(C)C(C)c2ccccc2)C(O)C(C)O1` (stereo not shown) [Derivative 122], the IC50 is reported as 2530 nM.
For `COc1cccc2c1C(=O)c1c(O)c3c(c(O)c1C2=O)CC(O)(C(=O)CO)CC3OC1CC(N=CN2CCCCC2)C(O)C(C)O1` (stereo not shown) [Derivative 39], the IC50 was 2840 nM.
With `COc1cccc2c1C(=O)c1c(O)c3c(c(O)c1C2=O)CC(O)(C(=O)CO)CC3OC1CC(N=CN2CCCCC2)C(O)C(C)O1` (stereo not shown) [Derivative 109] the IC50 was 760 nM.
In the case of `COc1cccc2c1C(=O)c1c(O)c3c(c(O)c1C2=O)CC(O)(C(=O)CO)CC3OC1CC(N=CN2CCN(C)CC2)C(O)C(C)O1` (stereo not shown) [Derivative 42], the IC50 is reported as 980 nM.
`COc1cccc2c1C(=O)c1c(O)c3c(c(O)c1C2=O)CC(O)(C(C)=O)CC3OC1CC(N=CN2CCCCCC2)C(O)C(C)O1` (stereo not shown) [Derivative 7] gave an IC50 of 1330 nM.
In the case of `COc1cccc2c1C(=O)c1c(O)c3c(c(O)c1C2=O)CC(O)(C(=O)CO)CC3OC1CC(N=C(C)N2CCCCC2)C(O)C(C)O1` (stereo not shown) [Derivative 56], the IC50 is reported as 3350 nM.
In the case of `COc1cccc2c1C(=O)c1c(O)c3c(c(O)c1C2=O)CC(O)(C(=O)CO)CC3OC1CC(N=CN2CCc3ccccc32)C(O)C(C)O1` (stereo not shown) [Derivative 114], the IC50 is reported as 140 nM.
With `COc1cccc2c1C(=O)c1c(O)c3c(c(O)c1C2=O)CC(O)(C(C)=O)CC3OC1CC(N=C(C)N2CCOCC2)C(O)C(C)O1` (stereo not shown) [Derivative 89] the IC50 was 50 nM.
`COc1cccc2c1C(=O)c1c(O)c3c(c(O)c1C2=O)CC(O)(C(C)=O)CC3OC1CC(N=C(C)N2CCN(C)CC2)C(O)C(C)O1` (stereo not shown) [Derivative 95] was tested, and the IC50 was 90 ± 10 nM.
For `COc1cccc2c1C(=O)c1c(O)c3c(c(O)c1C2=O)CC(O)(C(=O)CO)CC3OC1CC(N=C(C)N2CCCC2)C(O)C(C)O1` (stereo not shown) [Derivative 123], the IC50 was 310 nM.
`COc1cccc2c1C(=O)c1c(O)c3c(c(O)c1C2=O)CC(O)(C(C)=O)CC3OC1CC(N=CN2CCCC2)C(O)C(C)O1` (stereo not shown) [Derivative 1] was tested, and the IC50 was 1840 nM.
